# Source: patent US10702487B2, “Pharmaceutical composition for prevention of diet induced obesity” (FRIMLINE PRIVATE LIMITED, priority 2017, dated 2020)
# Tests used:
# Type in all cases: in vivo, Male Wistar Rats
# [1] = tested on: High fat diet induced obesity model in rat; assay: High fat diet induced obesity model in rat: body weight; settings: HFD-fed rats, end of 12 weeks, p.o., mean; for % increase in body weight: in comparison to normal control group; for Body weight: OEA 41, L-Valine 2, Pantethine 31, Orlistat 10 mg/kg
# Experimental: (§1) Screening anti-obesity effect of synergistic combination or composition/formulation comprising OEA and other natural ingredients using High fat diet induced obesity model in rat. […] To maintain appropriate conditions, temperature and relative humidity were recorded three times daily. During complete experiment, animals were supplied with the standard certified rat pellet feed (manufactured by VRK Nutritional Solutions, Pune) and drinking water treated by the reverse osmosis ad libitum. […] In order to evaluate the anti-obesity effect, forty-eight (48) male rats were screened and divided into eight groups. For a comparative analysis, the groups were divided as follows: normal control, disease control, treatment groups with individual component, reference standard drug and test composition/formulation of the present invention. […] The animals under consideration were examined for a study period of 12 weeks. Animals in group (G1) were given normal pellet diet, wherein the other groups were on high fat diet. After completion of study for 12 weeks, each group was analyzed in terms of the body weight and other evaluating parameters such as serum biochemistry (triglyceride, total cholesterol and low density lipoprotein cholesterol (LDL), analysis of liver homogenates and histopathology of liver. Obesity is essentially due to an excessive accumulation of the fatty tissues which leads to many diseases, not limited to insulin resistance, diabetes, fatty liver disease, coronary artery disease, hypertension and polycystic ovary syndrome. In obese conditions, the level of total cholesterol, triglyceride and LDL-cholesterol reaches beyond the normal ranges in human beings. Similarly, high fat diet model in rat is universally accepted model to test the efficacy of the drug for the treatment of obesity. In the above experimental procedure, obesity was induced by administration of a high fat diet (HFD) for the period of 12 weeks. For comparison, the normal control group animals were given a normal pellet diet, whereas the remaining groups were fed with the HFD. As a routine experiment, all animals' body weights were observed on weekly basis. Further, various serum biochemistry parameters such as Triglyceride, total cholesterol and LDL-cholesterol were analyzed at the end of the 12-week treatment period. In this regard, at the end of study period, all animals were euthanized and the liver was isolated. The liver homogenate of each individual animal was prepared and subjected for determination of the level of total cholesterol and Triglyceride. Further, part of the liver was used for histopathological investigation purpose. The primary observation during the experiment was monitoring the body weight of animals. Though the animals were tested weekly for the change in the body weight, an average body weight was measured at the end of 12 weeks, and is tabulated in the Table 2.
# [2] = tested on: High fat diet induced obesity model in rat; assay: High fat diet induced obesity model in rat: serum biochemistry; settings: HFD-fed rats, 12 weeks, p.o.; for LDL / Total Cholesterol / Triglyceride: mean; for LDL % Decrease / Total Cholesterol % Decrease / Triglyceride % Decrease: versus disease control
# Experimental: as §1, with “purpose.” for “purpose. The primary observation during the experiment was monitoring the body weight of animals. Though the animals were tested weekly for the change in the body weight, an average body weight was measured at the end of 12 weeks, and is tabulated in the Table 2.”
# [3] = tested on: High fat diet induced obesity model in rat; assay: High fat diet induced obesity model in rat: analysis of liver homogenates; settings: liver homogenate, HFD-fed rats, 12 weeks, p.o.; for Total Cholesterol / Triglyceride: mean; for Total Cholesterol % Decrease / Triglyceride % Decrease: versus disease control
# Experimental: as §1, with “purpose.” for “purpose. The primary observation during the experiment was monitoring the body weight of animals. Though the animals were tested weekly for the change in the body weight, an average body weight was measured at the end of 12 weeks, and is tabulated in the Table 2.”
SMILES,% increase in body weight [1],Body weight [1],LDL [2],Total Cholesterol [2],Triglyceride [2],LDL % Decrease [2],Total Cholesterol % Decrease [2],Triglyceride % Decrease [2],Total Cholesterol [3],Triglyceride [3],Total Cholesterol % Decrease [3],Triglyceride % Decrease [3]
CC(C)[C@H](N)C(=O)O [L-Valine],22.71%,338.67 gm,55.45 mg/dL,140.00 mg/dL,115.23 mg/dL,4.35%,4.92%,6.15%,85.23 mg/dL,80.02 mg/dL,5.56%,3.59%
"CCCCCCCC/C=C\CCCCCCCC(=O)NCCO [OEA, Oleoylethanolamide]",12.32%,310.00 gm,35.54 mg/dL,105.54 mg/dL,100.05 mg/dL,38.70%,28.32%,18.51%,74.12 mg/dL,59.98 mg/dL,17.87%,27.74%
CCCCCCCCCCC[C@@H](C[C@@H]1OC(=O)[C@H]1CCCCCC)OC(=O)[C@H](CC(C)C)NC=O [Orlistat],7.97%,298.00 gm,25.74 mg/dL,84.27 mg/dL,77.62 mg/dL,55.60%,42.77%,36.78%,60.33 mg/dL,44.82 mg/dL,33.15%,46.00%
